Reference: the METLIN SMRT retention time set (Domingo-Almenara et al. 2019)

Assay: gradient 5% acetonitrile 3 min, to 50% in 2 min, to 85% in 15 min, held 3 min, 100 µL/min
Settings: column: Zorbax Extend-C18 2.1 x 50 mm; eluents: water / acetonitrile, 0.1% formic acid
Outline: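 Standards, all pure, were combined into mixtures of ~100 molecules and run at 100 μL/min on a Zorbax Extend-C18 column (2.1 × 50 mm, 1.8 μm) with water and acetonitrile, each containing 0.1% formic acid. A coupled quadrupole time-of-flight mass spectrometer operated in positive and negative ionization mode. Retention time values come from computationally picked adduct peaks, each inspected manually.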

| Compound | RP-LC retention time [s] |
| --- | --- |
| CCN(CC)S(=O)(=O)c1ccc2nc(N3CCN(c4ccccn4)CC3)cnc2c1 | 675 |
| Cc1noc(C)c1CC(=O)NC1CCc2nn(CC3CC3)c(=O)n2CC1 (stereo not given) | 625 |
| CCOc1ccc(-c2ccc(C)c(NC(=O)c3ccc(S(=O)(=O)N(C)C)cc3)c2)nn1 | 778 |
| CN(C)CCC1c2ccc(Cl)cc2CCc2cccnc21 (stereo not given) | 666 |
| CN1C(=O)COc2cc(-c3noc(C(=O)N4CCCC4)n3)ccc21 | 746 |
| COc1ccc(NC(=O)Cn2c(=O)c3cc(C4CC4)nn3c3ncccc32)c(OC)c1 | 772 |
| Cc1cc(C)n(-c2ccc(C(=O)NCc3cc(F)cc(F)c3)cn2)n1 | 943 |
| Cc1cccc(N2CCN(CC(O)c3ccc4c(c3)OCO4)CC2)c1C (stereo not given) | 720 |
| O=C(c1n[nH]c2ccccc12)N1CCN(c2ccc(C(F)(F)F)cn2)CC1 | 832 |
| CCOc1cc(-c2noc(-c3nnn4c3COC(c3ccc(Cl)cc3)C4)n2)ccc1OC (stereo not given) | 1190 |
| COc1ccc(-n2nnc(-c3nc(-c4cccc(OC)c4)cs3)c2N)cc1 | 1070 |
| Cc1ccc(-c2nc3cccc(C)n3c2Nc2ccc3c(c2)OCCO3)cc1 | 710 |
| COCc1nc(C2CCN(C(=O)C3CCC3)C2)no1 (stereo not given) | 672 |
| N#Cc1cccc(CN2CCCC(c3nc(-c4ccncc4)n[nH]3)C2)c1 (stereo not given) | 494 |
| Nc1sc(SCC(=O)Nc2ccc3c(c2)OCO3)nc1-c1ccccc1 | 797 |
| CC(C)C(=O)N1CCc2c(c(C(=O)N3CCC(C(=O)NC4CCCCCC4)CC3)nn2C)C1 | 698 |
| Cc1nc(-c2ccccc2)c(-c2ccncc2)o1 | 855 |
| Cn1c(CCNC(=O)c2ccc(C(F)(F)F)cc2)nc2cccnc21 | 686 |
| CCCS(=O)(=O)N1CCCN(C2=NS(=O)(=O)C(c3ccc(Cl)cc3)=C2C)CC1 | 934 |
| Cc1ccc(-c2nc(C)c(C(=O)NC3CC3)s2)cc1 | 888 |
| O=C(NCC1(c2cccs2)CCOCC1)c1ccccc1F | 763 |
| COCCNc1cc(-n2ccnc2C)n2nccc2n1 | 554 |
| COCCCNS(=O)(=O)c1cc(-c2[nH]ncc2C(=O)N2CCCC2)oc1C | 623 |
| CO[C@H]1CN(C(C)C)[C@H]1C1CCN(C(=O)C(C)C)CC1 | 557 |
| Cc1c(C(=O)N2CCN(c3ccc(Cl)cc3)CC2)sc2nc[nH]c(=O)c12 | 769 |

| Compound | RP-LC retention time [s] |
| --- | --- |
| CCCCN1C(=O)C(CC(=O)NC(C)C)Sc2ncccc21 (stereo not given) | 742 |
| CCn1cc(S(=O)(=O)N2CC(Cn3c(C)cnc3-c3cccnc3)C2)cn1 | 576 |
| Cc1ccc(NS(=O)(=O)c2ccc(-c3nnc(C4CCC4)o3)o2)cc1 | 926 |
| O=c1ccc(-c2ccncc2)nn1CCCNS(=O)(=O)/C=C/c1ccccc1 | 582 |
| CCNC(=O)Nc1ccc2c(c1)CN(S(=O)(=O)c1cn(C)cn1)CCO2 | 625 |
| CCOC(=O)c1c(C)oc2nc(C)nc(NCCN(Cc3ccccc3)C(C)C)c12 | 735 |
| CC(C)S(=O)(=O)N1CC(c2nc(CCOCc3ccccc3)no2)C1 | 914 |
| C=CCn1c(NCc2ccccc2Cl)nc2ccccc21 | 699 |
| COc1cc(OC)c(NC(=O)CN2C(=O)NC(c3ccc(Cl)cc3)C3=C2COC3=O)cc1Cl (stereo not given) | 858 |
| Cc1ccc2cc(CCC(=O)N3CCN(c4ncccn4)CC3)c(=O)[nH]c2c1 | 670 |
| Cc1noc(-c2cccc(OC3CN(C(=O)NCC(C)C)C3)c2)n1 | 808 |
| Cc1noc(COC2CCCN(C(=O)NCCc3ccccc3)C2)n1 (stereo not given) | 756 |
| Cc1cccc(-c2ncccc2CNS(=O)(=O)c2ccc(Cl)s2)c1 | 785 |
| Cc1cc(N2CCN(C)CC2)nc(N2CCN(C(=O)c3ccc(-c4ccccc4)cc3)CC2)n1 | 585 |
| CS(=O)(=O)N(C1CCOCC1)C1CCN(C(=O)c2ccc(Cl)cc2)CC1 | 840 |
| O=C(Cc1ccc(F)cc1)Nc1cc(-c2cccs2)no1 | 926 |
| CCCc1cc(N2CCN(C(=O)c3ccco3)CC2)nc2nnc(C)n12 | 868 |
| COc1cccc(-c2noc(C3CCCN3C(=O)Nc3cc(OC)ccc3OC)n2)c1 (stereo not given) | 849 |
| CC(C)n1cnnc1CC1CCN(C(=O)C2CCN(S(=O)(=O)N3CCOCC3)CC2)CC1 | 614 |
| O=C(NCc1ccco1)C(=O)NCC(c1cccnc1)N1CCOCC1 (stereo not given) | 568 |
| Cc1nnc(-c2ccc(OCC(=O)N(C(C)C)C(C)C)cc2)o1 | 708 |
| COc1ccc(-c2noc(-c3ccc(N4CCC(N5CCCCC5)CC4)nc3)n2)cc1 | 738 |
| Cc1noc(C)c1CC(=O)N1CCCn2ccnc2C1C(C)C (stereo not given) | 632 |
| c1ccc(OCc2nc(-c3cccc(-c4ccn[nH]4)c3)no2)cc1 | 906 |
| CCCCn1c(=O)c2ccccc2n(Cc2nc(-c3ccc(C)c(C)c3)no2)c1=O | 1290 |

Second part, the compound after the results:

| RP-LC retention time [s] | Compound |
| --- | --- |
| 746 | Cc1oc(-c2[nH]ncc2C(=O)N(C)C)cc1S(=O)(=O)N1CCN(c2ccccc2)CC1 |
| 872 | O=C(Cc1ccc(Cl)cc1)N1CCN(c2ncccc2-c2nnc(C3CC3)o2)CC1 |
| 684 | O=C(NCCCN1CCCCC1)C1CCCN(c2ncc(-c3cccc(F)c3)cn2)C1 (stereo not given) |
| 905 | COc1ccc2[nH]cc(CCNC(=O)CC3CCN(S(=O)(=O)c4ccc(Cl)s4)CC3)c2c1 |
| 816 | CCc1cccc(NS(=O)(=O)c2cc3n(c2)CCN(C(C)C)C3=O)c1 |
| 709 | Cc1c(CNCCc2ccco2)c(C(=O)O)c(C)n1Cc1ccc(F)cc1 |
| 701 | CCOC(=O)c1ccc(Nc2c(C(=O)N3CCCCC3CC)cnc3nc(C)ccc23)cc1 (stereo not given) |
| 614 | CCOc1ccc(-c2cc(=O)n(CC(=O)NCCn3ncccc3=O)cn2)cc1 |
| 1150 | Cc1cc(C)n(-c2ccnc(N3CCc4ccccc4C3)n2)n1 |
| 557 | CCN(CC)C(=O)c1cc2c(s1)CCC(C(=O)NCc1ccncc1)C2 (stereo not given) |
| 860 | Cc1cc(C)cc(Oc2nccn3c(=O)n(CC(=O)NCc4ccccc4)nc23)c1 |
| 696 | COCCNC(=O)CN1C(=O)C2CCCCN2c2ccc(C(=O)N3CCCCC3)cc21 (stereo not given) |
| 622 | Cn1c(N2CCN(C(=O)c3ccccc3Cl)CC2)cc(=O)n(C)c1=O |
| 889 | CCc1ccc2[nH]c3c(c(=O)c2c1)CN(CC(=O)NCc1ccc(SC)cc1)CC3 |
| 613 | COc1ccc(C2C(C(=O)c3cccs3)=C(O)C(=O)N2CCCN2CCOCC2)cc1OC (stereo not given) |
| 907 | CCCN1C(=O)c2c(C(=O)NCCc3ccc(C)cc3)ncn2CC1(C)C(=O)NCCC(C)C (stereo not given) |
| 672 | Cc1cc(C)n(Cc2ccc(C(=O)N3CCN(Cc4noc5ccccc45)CC3)o2)n1 |
| 928 | CCc1cccc(NC(=O)N2CCc3c(c(-c4nc(C5CC5)no4)nn3C)C2)c1 |
| 1120 | Cc1ccc(-c2csc3c(=O)n(CC(=O)N4CCOc5ccc(C)cc54)cnc23)cc1 |
| 588 | O=C(NCc1ccncc1)C1CC(=O)N(CCc2c[nH]c3ccc(F)cc23)C1 (stereo not given) |

| RP-LC retention time [s] | Compound |
| --- | --- |
| 742 | CC(C)CNC(=O)CN1CCN(Cc2ccc(F)cc2)C1=O |
| 705 | CCc1cccc(C)c1NC(=O)Cn1nc2c3ccccc3ncn2c1=O |
| 610 | O=C(Cc1c[nH]c2ccccc12)N1CCN(C(=O)c2cc(-c3cccnc3)n[nH]2)CC1 |
| 991 | O=S(=O)(c1cccc(-c2nnc(-c3ccc(F)cc3)o2)c1)N1CCCC1 |
| 790 | CSc1ccc(CNC(=O)C2c3ccccc3CCN2C(C)=O)cc1 (stereo not given) |
| 646 | O=C(Cn1c(=O)cnc2cc(C(=O)NC3CC3)ccc21)Nc1ccccc1C(F)(F)F |
| 751 | CC(=O)N1CCc2cc(N3CC(C(=O)Nc4ccc(F)c(Cl)c4)CC3=O)ccc21 (stereo not given) |
| 934 | O=C(Nc1ccc(F)cc1)N1CCCC1c1nc(-c2ccc(F)cc2F)no1 (stereo not given) |
| 686 | CCOCCCNC(=O)C1CCN(c2cc(=O)n(C)c(=O)n2CC)CC1 |
| 816 | CC(=O)N1CCCc2ccc(NC(=O)Cc3ccc(Cl)cc3)cc21 |
| 797 | CCOC(=O)c1ccc(NC(=O)C2CCCN(c3nnc(C)c4c(C)n(-c5ccccc5)nc34)C2)cc1 (stereo not given) |
| 760 | O=C(NCc1ccccc1)C1CCN(S(=O)(=O)c2cc(C(=O)N3CCCC3)cs2)CC1 |
| 932 | CCc1ccc(CNC(=O)C2CC(=O)N(c3ccc4c(c3)CCN4C(C)=O)C2)cc1 (stereo not given) |
| 937 | CC(=O)N1CCCSc2ccc(S(=O)(=O)N(C)c3ccc(C)cc3)cc21 |
| 841 | O=C(NCCc1ccco1)C1CCN(Cc2cc3ccccc3n2Cc2ccccc2Cl)CC1 |
| 749 | CCNC(=O)c1ccc(-n2nc(C)cc2-c2ccccc2)cc1 |
| 744 | COc1ccccc1NS(=O)(=O)c1cc(N)ccc1N1CCCCC1 |
| 1000 | CCc1nc(-c2ccc3c(c2)CCN3C(=O)COc2ccc(OC)cc2)no1 |
| 614 | Cc1c(C)n(C(=O)CN2CCC(C(N)=O)CC2)c2ccccc12 |
| 1180 | CC1CCCN(c2nn(CC(=O)Nc3cc(F)cc(F)c3)c(=O)c3ccccc23)C1 (stereo not given) |
